From US20220241369A1, “COMPOSITIONS AND METHODS OF MODULATING INFLAMMATION” (La Jolla Institute for Allergy and Immunology, priority 2018, published 2022)
“Also recorded” adds a separate entry of the source.

Legend:
[1] = system: CMT-93 murine intestinal epithelial cells; assay: HRF secretion into culture supernatant, western blot, CMT-93; type: cell-based, mouse; conditions: stimulated overnight, 20 or 100 ng/ml
Method: (§1) FIGS. 4A-4C show HRF is secreted by various cells. CMT-93 murine intestinal epithelial cells (FIG. 4A) and NIH/3T3 murine fibroblasts (FIG. 4B) and Raw264.7 murine macrophages (FIG. 4C) were stimulated overnight with low (20 ng/ml) and high (100 ng/mL) concentrations of various cytokines. HRF secreted into culture supernatants was detected by western blotting. Med and US denote medium only and supernatant from unstimulated cells, respectively. −DTT and +DTT indicate SDS gels were run under non-reducing and reducing conditions, respectively. Gel portions of containing the 23 kDa HRF monomer are shown except that a larger portion of the non-reducing gel is shown in panel C. Arrow indicates the position of HRF dimer, which disappeared under reducing conditions.
(§2) The following cell lines were cultured in DMEM plus 10% FCS except for U-937 cells which were cultured in RPMI1640 plus 10% FCS: CMT-93 mouse and Caco-2 (with 20% FCS) human intestinal epithelial cell lines; NIH/3T3 mouse fibroblast line; Raw 264.7 mouse and U-937 human macrophage lines; BEAS-2B human bronchial epithelial cell line; 293T human embryonic kidney cell line (obtained from ATCC, Manassas, Va., except for NIH/3T3, which was provided by S. A. Aaronson, NIH). Fibroblast-like stromal cells were cultured from small intestines of BALB/c mice in DMEM/10% FBS. CD4^+ T and B cells were purified from mouse spleens using BD IMag™ Mouse CD4 and B cells enrichment set-DM. Low-density bone-marrow cells were cultured in the presence of 100 ng/ml of stem cell factor (PeproTech) and 100 ng/ml of FLT-3 ligand (R&D Systems) for 4 days, and with 10 ng/mL of IL-5 (R&D Systems) thereafter for 10 days to obtain bone marrow-derived eosinophils (44). Bone marrow cells were cultured in the presence of 20 ng/ml of GM-CSF for 6 days and adherent cells were collected as bone marrow-derived macrophages. Non-adherent cells were further cultured with 5 ng/ml GM-CSF and the non-adherent cells were collected as bone marrow-derived dendritic cells. […]

[2] = system: BEAS-2B human bronchial epithelial cells; assay: HRF secretion, western blot, BEAS-2B; type: cell-based; conditions: combination of HDM and cytokine, 24 h
Source text: As lung epithelial cells are exposed to the environment, HRF secretion was studied using BEAS-2B human bronchial epithelial cells. A small amount of HRF was secreted constitutively, but house dust mite allergens induced the secretion of high-molecular-weight HRF species (HMW-HRFs). Various cytokines including epithelial derived cytokines as well as Th2 cytokines and proinflammatory cytokines further enhanced HDM-induced secretion of HMW-HRFs.
Cultured cells were scraped and treated with adenosine and ATP, which should be abundantly present in inflammatory or injured tissues. These conditions induced secretion of HRF monomer, dimer and HMW-HRFs like stimulation with HDM plus cytokines.
Culture supernatants were analyzed by SDS-PAGE under nonreducing (−DTT) and reducing (+DTT) conditions, followed by western blotting for HRF probing. HDM-induced HRF secretion was enhanced not only by Th2 cytokines (IL-4, IL-5, and IL-13), but also by epithelial derived cytokines (IL-25, IL-33, and TSLP) and proinflammatory cytokines (IL-1beta, IL-6 and TNF). med, medium alone; US, unstimulated; HDM, house dust mite; CR, cockroach; RW, ragweed; Af, Aspergillus fumigatus. Arrowhead, HRF monomer.

[3] = system: Raw264.7 murine macrophages; assay: HRF secretion into culture supernatant, western blot, macrophages; type: cell-based, mouse; conditions: stimulated overnight, 20 or 100 ng/ml
Method: as §1, §2

IgE+ mMCP-1+ mast cells = assay: Localization of gavaged HRF inhibitors in jejunum by confocal microscopy; type: in vivo, mouse
Method: HRF multimers in the jejunum of non-sensitized/OVA challenged (Cont, n=6) or OVA-sensitized/OVA-challenged (OVA, n=5) mice were quantified by a newly developed ELISA (FIG. 3A, FIG. 3C). HRF was also measured by ELISA (FIG. 3B). HRF dimer and monomer were quantified by western blotting in control (Cont) and food allergic mice treated without (OVA) or with GST (GST) or GST-N19 (N19) (n=5 for each group) (FIG. 3D). Allergic diarrhea was induced by 6 challenges. On the day of 7th challenge, the mice were gavaged with 0.1 mg of GST or GST-N19 (FIG. 3E). One hour later, mice were sacrificed without OVA challenge. Jejunum tissues were stained for GST, IgE, and mMCP-1 before confocal microscopy (n=5 for GST and n=6 for GST-N19). Arrows indicate cells positive for GST or GST-N19 as well as IgE and mMCP-1. […] Bars=50 μm.
Jejunum biopsy was fixed in 4% paraformaldehyde at 4° C., washed in 10-20% sucrose in phosphate buffered saline, and embedded in O.C.T. compound (Sakura Finetek, Japan). Cyrosections were made in 6 μm and blocked with 2% skim milk. Immunostaining was performed with anti-HRF (rabbit polyclonal FL-172), anti-GST (rabbit polyclonal Z-5) (Santa Cruz Biotechnology), anti-IgE (clone RME-1 from Biolegend and clone R35-72 from BD Biosciences), anti-mMCP1 (Catalog #AF5146, R&D Systems), anti-CD45 (clone 30-F11), anti-CD63 (clone NVG-2) (Biolegend), and anti-Siglec F (clone E50-2440, BD Biosciences) as primary antibodies, and anti-Rabbit Alexa Fluor 647 (Catalog #A21245), anti-Rat Alexa Fluor 568 (Catalog #A11077), and anti-Sheep Alexa Fluor 555 (Catalog #A11015) (Thermo Fisher Scientific) as secondary antibodies. Coverslips were mounted with Prolong Gold with DAPI (Thermo Fisher Scientific) and fluorescence was observed under Leica TCS SP2 confocal microscopy (Leica) and Nuance Multi spectral Imaging System (PerkinElmer).
Applicant next tested whether HRF inhibitors target mucosal mast cells. To this end, mice with allergic diarrhea were i.g. gavaged with GST-N19 or GST, and their location was identified 1 h after their gavage.

[4] = system: OVA-induced food allergy (allergic diarrhea); assay: IgE-mediated experimental food allergy, i.g. pretreatment with HRF inhibitor before each OVA challenge; type: in vivo, mouse
Method: FIGS. 1A-1I show GST-N19 inhibits the development of diarrhea and intestinal mastocytosis in murine food allergy. Mice were i.p. sensitized with OVA ([…]) plus alum on days 0 and 14. From day 28, mice were i.g. challenged with OVA (50 mg) three times a week. Sensitized mice were either non-pretreated (−) or i.g. pretreated with 100 μg of GST or GST-N19 (N19). (FIG. 1A) Procedure scheme. (FIG. 1B) The development of diarrhea was monitored for 90 min after each OVA challenge. (n=5 for non-sensitized group, n=3 for inhibitor non-pretreated group, n=4 for GST group, n=6 for N19 group, data are representative of at least 3 independent experiments) Log-rank test: p=0.028 (GST vs. GST-N19), p=0.036 (control vs. GST-N19). […] (FIG. 1C-FIG. 1E) Total IgE, IgG1, HRF, and HRF-reactive IgE and IgG in sera were measured by ELISA. (FIG. 1F) Serum mMCP-1 was also measured by ELISA. (FIG. 1G) Sections of jejunum were stained with chloroacetate esterase to identify mast cells. Sections indicated by rectangles are enlarged in lower rows. Bar=100 μm in large pictures and 50 μm in insets. (FIG. 1H) Flow cytometry was performed to enumerate MMC9s (Lin^−c-Kit^+ST2^+IL-17RB^−Integrin β7^lo) in jejunum. (n=14 for non-sensitized group, n=15 for inhibitor non-pretreated group, n=9 for GST group, n=9 for GST-N19 group, pooled data of 3 independent experiments) (FIG. 1I) Cytokine mRNAs in jejunum were quantified by qRT-PCR. *, **: p<0.05, p<0.01 by ANOVA with Tukey's multiple comparison.
Mice were i.p. sensitized with OVA (50 μg/mouse) plus alum on days 0 and 14. From day 28, mice were i.g. challenged with OVA (25 or 50 mg) or PBS (control) three times a week. Before each challenge, mice were starved for 3 h, then i.g. pretreated with GST, GST-N19 (100 μg/mouse), synthetic N19 peptide, or HRF-2CA. The development of diarrhea was monitored for 90 min after OVA challenge. Diarrhea severity (30) was based on states of stool: solid (score 0), funicular (score 1), slurry (score 2), and watery (score 3).
For histologic analysis, jejunal tissue was fixed in 10% formalin. Mast cells in jejunal sections were detected by chloroacetate esterase staining. IgE, IgG, IgG1, IgG2a, mMCP-1, HRF, HRF-reactive IgE, and HRF-reactive IgG 24 h after the last OVA challenge were measured by ELISA (see Supplemental Information). Cytokine mRNAs in jejunum were quantified by qRT-PCR.
Twenty-four hours after the last OVA challenge, mice were sacrificed and small intestines (0.5-15 cm from stomach) were collected. The intestinal tissues were opened longitudinally and washed with HBSS. The washed tissues were incubated with 5 mM EDTA-HBSS for 30 min at 4° C., transferred to 30 ml HBSS in 50 ml tubes, and vigorously shaken to remove intestinal epithelial cells. The tissues were then washed with 10 ml of 10% FCS RPMI medium. Tissues were cut into tiny pieces and incubated with 2.4 mg/ml Collagenase D and 0.2 mg/ml DNase for 30 min at 37° C. Then cells were washed, resuspended in 44% Percoll solution, and slowly loaded on the top of 67% Percoll solution. The cells were centrifuged (1800 rpm, 20 min) and lymphocyte fractions were collected and used for detection of MMC9s (Lin^−c-Kit^+ST2^+IL-17RB^−Integrin β7^lo).
The cells were first incubated with 2.4G2 for 15 min at 4° C. and further incubated with Abs (PE-anti-07 integrin mAb (clone FIB504), PerCP/Cy5.5-anti-CD4 mAb (clone RM4-5), PerCP/Cy5.5-anti-CD8 mAb (clone 53-6.7), PerCP/Cy5.5-anti-CD11b mAb (clone M1/70), PerCP/Cy5.5-anti-CD11c mAb (clone N418), PerCP/Cy5.5-anti-B220 mAb (RA3-6B2), PerCP/Cy5.5-anti-Ly-6G/Ly-6C mAb (clone RB6-8C5), PerCP/Cy5.5-anti-CD335 mAb (clone 29A1.4), AlexaFluor647-anti-IL-17RB (clone 9B10), APC/Cy7-anti-CD117 (clone 2B8), Biotin-anti-ST2 (clone DIH9)) (Biolegend) for 30 min at 4° C. After washed, the cells were incubated with SA-BV421 (Biolegend) for 30 min at 4° C. MMC9 population was identified using FACS Canto. Data were analyzed using FlowJo software.

[5] = system: sensitization phase of murine food allergy; assay: Pretreatment with HRF inhibitor before sensitization with OVA plus alum; type: in vivo, mouse; conditions: 100 μg i.g. one day before i.p. immunization on days 0 and 14
Method: Mice were i.g. pretreated with 100 μg of GST, GST-N19, HRF-2CA or PBS (OVA) one day before i.p. immunization with OVA plus alum on days 0 and 14. From day 28, mice were i.g. challenged with OVA three times a week. (FIG. 9A) Procedure scheme. (FIG. 9B) The development of diarrhea was monitored after OVA challenge. (n=5 for OVA, n=4 for GST, n=5 for N19, n=5 for 2CA, and n=3 each for unsensitized pretreated groups (not shown)). (FIG. 9C, FIG. 9D) Total IgE and IgG1 were measured by ELISA.
Whether HRF inhibitors affect the sensitization phase of food allergy was tested.

anti-TNP IgE C38-2 = assay: cell-based or functional assay
[6] = sensitized mice pretreated i.g. with 100 μg before each OVA challenge

Molecule: IL-6: proinflammatory cytokine
- HRF secretion [1]: strongly induced
- HDM-induced HRF secretion [2]: enhanced
- secretion of HRF monomer [3]: increased

Molecule: GST-N19: GST-tagged N-terminal 19 amino acids of HRF; HRF inhibitor
- targeting of mast cells in jejunum (IgE+ mMCP-1+ mast cells; after i.g. gavage): preferentially targets
- IgE+ mMCP-1+ mast cells co-localized with the substance (IgE+ mMCP-1+ mast cells; mice with allergic diarrhea, 1 h after i.g. gavage of 0.1 mg, anti-GST staining): about 65%
- serum mMCP-1 level ([4]; i.g. pretreatment before each OVA challenge, ELISA): reduced
- number of mucosal mast cells in jejunum (intestinal mastocytosis) ([4]; i.g. pretreatment before each OVA challenge, chloroacetate esterase staining): inhibits; also recorded: reduced
- MMC9s in jejunum ([4]; i.g. pretreatment, flow cytometry): reduced
- Th2 cytokine mRNAs (Il4 and Il13) in jejunum ([4]; i.g. pretreatment, qRT-PCR): repressed
- levels of total IgE, IgG1, IgG2a or HRF-reactive IgE and IgG ([4]; i.g. pretreatment, serum ELISA): not reduced
- diarrhea occurrence / incidence [4, 6]: inhibits; also recorded: reduced
- onset of diarrhea [4, 6]: delayed
- sensitization phase of murine food allergy [5]: do not affect

Molecule: IL-13: Th2 cytokine
- HRF secretion [1]: strongly induced
- HDM-induced HRF secretion [2]: enhanced
- HRF dimer ([3]; non-reducing gel): increased

B1: recombinant dimeric murine HRF (HRF-His6, Sephacryl fraction Fr1) (ligand)
chain: MIIYRDLISHDELFSDIYKIREIADGLCLEVEGKMVSRTEGAIDDSLIGGNASAEGPEGEGTESTVVTGVDIVMNHHLQETSFTKEAYKKYIKDYMKSLKGKLEEQKPERVKPFMTGAAEQIKHILANFNNYQFFIGENMNPDGMVALLDYREDGVTPFMIFFKDGLEMEKCHHHHHH
modifications: disulfide bond Cys172-Cys172 between the two monomers
- EC50 of antigen TNP3-BSA for IL-13 release from C38-2-sensitized mouse BMMCs in the presence of 25 µg/ml mHRF dimer (156 ng/ml for 0 µg/ml mHRF dimer) (anti-TNP IgE C38-2): 0.124 µg/mL
- EC50 of antigen TNP3-BSA for IL-13 release from C38-2-sensitized mouse BMMCs in the presence of 50 µg/ml mHRF dimer (156 ng/ml for 0 µg/ml mHRF dimer) (anti-TNP IgE C38-2): 0.092 µg/mL
